Experiments:
Type in all cases: functional, cell-based
COR-L279 = assay: SANGER: Inhibition of human COR-L279 cell growth in a cell viability assay.
DG-75 = assay: cells; settings: Homo sapiens;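 note: growth inhibition of DG-75 cells, read out with a cell viability assay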
Description: SANGER: Inhibition of human DG-75 cell growth in a cell viability assay.

GDM-1 = assay: cells; settings: Homo sapiens;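 note: cell viability readout used to measure growth inhibition of human GDM-1 cells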
Description: SANGER: Inhibition of human GDM-1 cell growth in a cell viability assay.

HCC2157 = assay: cells; settings: Homo sapiens;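 note: growth inhibition of the cancer cell line, read out as cell viability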
Description: SANGER: Inhibition of human HCC2157 cell growth in a cell viability assay.

NB17 = assay: cells; settings: Homo sapiens;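 note: growth inhibition of NB17 cells, read out with a cell viability assay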
Description: SANGER: Inhibition of human NB17 cell growth in a cell viability assay.

NB7 = assay: cells; settings: Homo sapiens;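 note: growth inhibition of NB7 cells, read out with a cell viability assay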
Description: SANGER: Inhibition of human NB7 cell growth in a cell viability assay.

NCI-H1436 = assay: cells; settings: Homo sapiens;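 note: growth suppression of human NCI-H1436 cells, determined with a cell viability readout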
Description: SANGER: Inhibition of human NCI-H1436 cell growth in a cell viability assay.

NCI-H1694 = assay: cells; settings: Homo sapiens;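 note: cell viability assay measuring inhibition of growth in human NCI-H1694 cells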
Description: SANGER: Inhibition of human NCI-H1694 cell growth in a cell viability assay.

NCI-H1963 = assay: cells; settings: Homo sapiens;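 note: cell growth inhibition of the human line, determined with a cell viability assay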
Description: SANGER: Inhibition of human NCI-H1963 cell growth in a cell viability assay.

NCI-H524 = assay: cells; settings: Homo sapiens;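 note: growth inhibition of human NCI-H524 cells, read out through a cell viability assay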
Description: SANGER: Inhibition of human NCI-H524 cell growth in a cell viability assay.

REH = assay: cells; settings: Homo sapiens;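 note: growth inhibition of REH cells determined with a cell viability read-out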
Description: SANGER: Inhibition of human REH cell growth in a cell viability assay.

RL = assay: cells; settings: Homo sapiens
Description: SANGER: Inhibition of human RL cell growth in a cell viability assay.

Raji = assay: cells; settings: Homo sapiens;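 note: cell viability assay measuring inhibition of Raji cell growth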
Description: SANGER: Inhibition of human Raji cell growth in a cell viability assay.

SCC-3 = assay: cells; settings: Homo sapiens;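 note: cell viability assay measuring inhibition of SCC-3 cell growth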
Description: SANGER: Inhibition of human SCC-3 cell growth in a cell viability assay.

ST486 = assay: SANGER: Inhibition of human ST486 cell growth in a cell viability assay.
A253 cell line = assay: cells; settings: Homo sapiens;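 note: growth inhibition of A253 cells, read out with a cell viability assay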
Description: SANGER: Inhibition of human A253 cell growth in a cell viability assay.

CA46 = assay: cells; settings: Homo sapiens;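 note: growth inhibition of human CA46 cells, read out by a cell viability assay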
Description: SANGER: Inhibition of human CA46 cell growth in a cell viability assay.

U-698-M = assay: cells; settings: Homo sapiens
Description: SANGER: Inhibition of human U-698-M cell growth in a cell viability assay.

Ca-Ski = assay: cells; settings: Homo sapiens;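 note: cell viability assay measuring inhibition of Ca-Ski cell growth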
Description: SANGER: Inhibition of human Ca-Ski cell growth in a cell viability assay.

DK-MG = assay: cells; settings: Homo sapiens;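 note: growth inhibition of DK-MG cells, read out with a cell viability assay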
Description: SANGER: Inhibition of human DK-MG cell growth in a cell viability assay.

Detroit 562 = assay: cells; settings: Homo sapiens;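 note: growth inhibition of human Detroit 562 cells, read out by a cell viability assay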
Description: SANGER: Inhibition of human Detroit562 cell growth in a cell viability assay.

EFO-21 = assay: cells; settings: Homo sapiens;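 note: growth inhibition of EFO-21 cells measured with a viability assay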
Description: SANGER: Inhibition of human EFO-21 cell growth in a cell viability assay.

G-361 = assay: cells; settings: Homo sapiens
HCC70 = assay: cells; settings: Homo sapiens;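 note: cell viability assay measuring how strongly the compound suppresses proliferation of HCC70 cells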
Description: SANGER: Inhibition of human HCC70 cell growth in a cell viability assay.

HSC-2 = assay: cells; settings: Homo sapiens;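 note: growth inhibition of human HSC-2 cells, read out by a cell viability assay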
Description: SANGER: Inhibition of human HSC-2 cell growth in a cell viability assay.

KP-4 = assay: cells; settings: Homo sapiens;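 note: human KP-4 cells, with growth inhibition read out through a cell viability assay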
Description: SANGER: Inhibition of human KP-4 cell growth in a cell viability assay.

KU-19-19 = assay: cells; settings: Homo sapiens
Description: SANGER: Inhibition of human KU-19-19 cell growth in a cell viability assay.

KYSE-180 = assay: cells; settings: Homo sapiens;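 note: growth inhibition of KYSE-180 cells, read out with a cell viability assay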
Description: SANGER: Inhibition of human KYSE-180 cell growth in a cell viability assay.

KYSE-70 cell line = assay: cells; settings: Homo sapiens;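 note: cell viability assay read-out, with IC50 expressing suppression of KYSE-70 cell growth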
Description: SANGER: Inhibition of human KYSE-70 cell growth in a cell viability assay.

ME-180 = assay: cells; settings: Homo sapiens;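 note: cell viability assay measuring growth inhibition of ME-180 cells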
Description: SANGER: Inhibition of human ME-180 cell growth in a cell viability assay.

MEL-HO = assay: cells; settings: Homo sapiens
Description: SANGER: Inhibition of human MEL-HO cell growth in a cell viability assay.

MIA PaCa-2 = assay: cells; settings: Homo sapiens;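 note: growth inhibition of MIA PaCa-2 cells, read out with a cell viability assay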
Description: SANGER: Inhibition of human MIA-PaCa-2 cell growth in a cell viability assay.

MOLT-13 = assay: cells; settings: Homo sapiens;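 note: IC50 for suppression of MOLT-13 cell growth, read out with a cell viability assay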
Description: SANGER: Inhibition of human MOLT-13 cell growth in a cell viability assay.

NCI-H1703 = assay: cells; settings: Homo sapiens;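 note: growth inhibition of NCI-H1703 cells, read out via a cell viability assay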
Description: SANGER: Inhibition of human NCI-H1703 cell growth in a cell viability assay.

NCI-H441 = assay: cells; settings: Homo sapiens;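 note: growth inhibition of NCI-H441 cells, read out with a cell viability assay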
Description: SANGER: Inhibition of human NCI-H441 cell growth in a cell viability assay.

NY = assay: cells; settings: Homo sapiens
Description: SANGER: Inhibition of human NY cell growth in a cell viability assay.

OVCAR-5 = assay: cells; settings: Homo sapiens;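 note: growth inhibition of human OVCAR-5 cells, read out with a cell viability assay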
Description: SANGER: Inhibition of human OVCAR-5 cell growth in a cell viability assay.

PA-1 = assay: cells; settings: Homo sapiens;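 note: IC50 for suppression of PA-1 cell proliferation, determined with a cell viability read-out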
Description: SANGER: Inhibition of human PA-1 cell growth in a cell viability assay.

PANC-08-13 = assay: cells; settings: Homo sapiens
Description: SANGER: Inhibition of human PANC-08-13 cell growth in a cell viability assay.

Panc1005 = assay: cells; settings: Homo sapiens;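 note: growth inhibition of human PANC-10-05 cells, measured by a cell viability assay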
Description: SANGER: Inhibition of human PANC-10-05 cell growth in a cell viability assay.

PC-14 = assay: cells; settings: Homo sapiens;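 note: cell viability assay measuring inhibition of PC-14 cell growth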
Description: SANGER: Inhibition of human PC-14 cell growth in a cell viability assay.

PC-3 = assay: cells; settings: Homo sapiens;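 note: cell viability assay measuring growth inhibition of PC-3 cells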
Description: SANGER: Inhibition of human PC-3 cell growth in a cell viability assay.

S-117 = assay: cells; settings: Homo sapiens
Description: SANGER: Inhibition of human S-117 cell growth in a cell viability assay.

SCC-4 = assay: cells; settings: Homo sapiens;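 note: growth inhibition of human SCC-4 cells, read out as cell viability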
Description: SANGER: Inhibition of human SCC-4 cell growth in a cell viability assay.

SKG-IIIa = assay: cells; settings: Homo sapiens;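 note: cell growth inhibition, read out with a cell viability assay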
Description: SANGER: Inhibition of human SKG-IIIa cell growth in a cell viability assay.

SW48 = assay: cells; settings: Homo sapiens;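 note: growth inhibition of SW48 cells, read out with a cell viability assay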
Description: SANGER: Inhibition of human SW48 cell growth in a cell viability assay.

T47D = assay: cells; settings: Homo sapiens;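 note: growth inhibition of human T47D cells, measured with a cell viability assay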
Description: SANGER: Inhibition of human T47D cell growth in a cell viability assay.

A 172 = assay: cells; settings: Homo sapiens;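 note: growth inhibition of A172 cells, measured with a cell viability readout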
Description: SANGER: Inhibition of human A172 cell growth in a cell viability assay.

A2780 = assay: cells; settings: Homo sapiens;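 note: growth inhibition of A2780 cells, read out with a cell viability assay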
Description: SANGER: Inhibition of human A2780 cell growth in a cell viability assay.

A-375 = assay: cells; settings: Homo sapiens;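 note: growth inhibition of A375 cells, read out with a cell viability assay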
Description: SANGER: Inhibition of human A375 cell growth in a cell viability assay.

A673 = assay: cells; settings: Homo sapiens;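 note: growth inhibition of human A673 cells, read out through a cell viability assay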
Description: SANGER: Inhibition of human A673 cell growth in a cell viability assay.

AN3-CA = assay: cells; settings: Homo sapiens;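 note: growth inhibition of human AN3-CA cells measured by a cell viability assay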
Description: SANGER: Inhibition of human AN3-CA cell growth in a cell viability assay.

AU565 = assay: cells; settings: Homo sapiens;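 note: cell viability assay measuring growth inhibition of human AU565 cells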
Description: SANGER: Inhibition of human AU565 cell growth in a cell viability assay.

BHT-101 = assay: cells; settings: Homo sapiens
Description: SANGER: Inhibition of human BHT-101 cell growth in a cell viability assay.

C3A = assay: cells; settings: Homo sapiens;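 note: growth inhibition of C3A human cells, quantified with a cell viability readout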
Description: SANGER: Inhibition of human C3A cell growth in a cell viability assay.

YKG-1 = assay: cells; settings: Homo sapiens;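 note: cell growth inhibition, read out with a viability assay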
Description: SANGER: Inhibition of human YKG-1 cell growth in a cell viability assay.

CHP-212 = assay: cells; settings: Homo sapiens
Description: SANGER: Inhibition of human CHP-212 cell growth in a cell viability assay.

COLO-679 = assay: cells; settings: Homo sapiens
Description: SANGER: Inhibition of human COLO-679 cell growth in a cell viability assay.

SMILES: Cc1n[nH]c2ccc(-c3cncc(OC[C@@H](N)Cc4c[nH]c5ccccc45)c3)cc12 [A-443654]
- IC50 (COR-L279): 570 nM
- IC50 (DG-75): 546 nM
- IC50 (GDM-1): > 1020 nM
- IC50 (HCC2157): 561 nM
- IC50 (NB17): 112 nM
- IC50 (NB7): > 1020 nM
- IC50 (NCI-H1436): 477 nM
- IC50 (NCI-H1694): 509 nM
- IC50 (NCI-H1963): 392 nM
- IC50 (NCI-H524): 860 nM
- IC50 (REH): > 1020 nM
- IC50 (RL): > 1020 nM
- IC50 (Raji): 380 nM
- IC50 (SCC-3): 620 nM
- IC50 (ST486): 204 nM
- IC50 (A253 cell line): 393 nM
- IC50 (CA46): > 1020 nM
- IC50 (U-698-M): > 1020 nM

SMILES: CC[C@@]1(O)C(=O)OCc2c1cc1n(c2=O)Cc2cc3ccccc3nc2-1 [CAMPTOTHECIN]
- IC50 (Ca-Ski): 4.97 nM
- IC50 (DK-MG): 84.7 nM
- IC50 (Detroit 562): 13.3 nM
- IC50 (EFO-21): 20.3 nM
- IC50 (G-361): > 100 nM
- IC50 (HCC70): 45.5 nM
- IC50 (HSC-2): 11.7 nM
- IC50 (KP-4): 3.16 nM
- IC50 (KU-19-19): 22 nM
- IC50 (KYSE-180): 13.2 nM
- IC50 (KYSE-70 cell line): 92.1 nM
- IC50 (ME-180): 2.69 nM
- IC50 (MEL-HO): 7.63 nM
- IC50 (MIA PaCa-2): 2.76 nM
- IC50 (MOLT-13): 1.79 nM
- IC50 (NB17): 2.18 nM
- IC50 (NB7): 16.8 nM
- IC50 (NCI-H1703): 6.51 nM
- IC50 (NCI-H441): 28.5 nM
- IC50 (NY): > 100 nM
- IC50 (OVCAR-5): 43.3 nM
- IC50 (PA-1): 0.981 nM
- IC50 (PANC-08-13): 44.9 nM
- IC50 (Panc1005): 19.7 nM
- IC50 (PC-14): 13.6 nM
- IC50 (PC-3): 9.75 nM
- IC50 (S-117): 78.1 nM
- IC50 (SCC-4): 19.3 nM
- IC50 (SKG-IIIa): 4.58 nM
- IC50 (SW48): 3.02 nM
- IC50 (T47D): 13.5 nM
- IC50 (A 172): 12.8 nM
- IC50 (A2780): 2.9 nM
- IC50 (A-375): 3.69 nM
- IC50 (A673): 0.815 nM
- IC50 (AN3-CA): 34 nM
- IC50 (AU565): 3.68 nM
- IC50 (BHT-101): 1.82 nM
- IC50 (C3A): 56.9 nM
- IC50 (YKG-1): 5.45 nM
- IC50 (CHP-212): 1.03 nM
- IC50 (COLO-679): > 100 nM

SMILES: Cc1nc(Nc2ncc(C(=O)Nc3c(C)cccc3Cl)s2)cc(N2CCN(CCO)CC2)n1 [DASATINIB]
- IC50 (COR-L279): > 1280 nM
- IC50 (DG-75): > 1280 nM
- IC50 (GDM-1): > 1280 nM
- IC50 (HCC2157): > 1280 nM
- IC50 (NB17): > 1280 nM
- IC50 (NB7): > 1280 nM
- IC50 (NCI-H1436): > 1280 nM
- IC50 (NCI-H1694): > 1280 nM
- IC50 (NCI-H1963): > 1280 nM
- IC50 (NCI-H524): > 1280 nM
- IC50 (REH): > 1280 nM
- IC50 (RL): > 1280 nM
- IC50 (Raji): > 1280 nM
- IC50 (SCC-3): > 1280 nM
- IC50 (ST486): > 1280 nM
- IC50 (A253 cell line): > 1280 nM
- IC50 (CA46): > 1280 nM
- IC50 (U-698-M): > 1280 nM

SMILES: CCn1c(-c2nonc2N)nc2cnc(Oc3cccc(NC(=O)c4ccc(OCCN5CCOCC5)cc4)c3)cc21 [GSK-269962A]
- IC50 (COR-L279): 2070 nM
- IC50 (DG-75): > 2500 nM
- IC50 (GDM-1): > 2500 nM
- IC50 (HCC2157): > 2500 nM
- IC50 (MOLT-13): > 2500 nM
- IC50 (NB17): > 2500 nM
- IC50 (NB7): > 2500 nM
- IC50 (NCI-H1436): > 2500 nM
- IC50 (NCI-H1694): > 2500 nM
- IC50 (NCI-H1963): 1280 nM
- IC50 (NCI-H524): > 2500 nM
- IC50 (REH): > 2500 nM
- IC50 (RL): > 2500 nM
- IC50 (Raji): > 2500 nM
- IC50 (SCC-3): > 2500 nM
- IC50 (ST486): > 2500 nM
- IC50 (A253 cell line): > 2500 nM
- IC50 (CA46): > 2500 nM
- IC50 (U-698-M): > 2500 nM

SMILES: Cc1[nH]c(/C=C2\C(=O)Nc3ccc(S(=O)(=O)Cc4c(Cl)cccc4Cl)cc32)c(C)c1C(=O)N1CCC[C@@H]1CN1CCCC1 [PHA-665752]
- IC50 (COR-L279): > 2000 nM
- IC50 (DG-75): > 2000 nM
- IC50 (GDM-1): > 2000 nM
- IC50 (HCC2157): > 2000 nM
- IC50 (MOLT-13): > 2000 nM
- IC50 (NB17): > 2000 nM
- IC50 (NB7): > 2000 nM
- IC50 (NCI-H1436): > 2000 nM
- IC50 (NCI-H1694): > 2000 nM
- IC50 (NCI-H1963): > 2000 nM
- IC50 (NCI-H524): > 2000 nM
- IC50 (REH): > 2000 nM
- IC50 (RL): > 2000 nM
- IC50 (Raji): > 2000 nM
- IC50 (SCC-3): > 2000 nM
- IC50 (ST486): > 2000 nM
- IC50 (A253 cell line): > 2000 nM
- IC50 (CA46): > 2000 nM
- IC50 (U-698-M): > 2000 nM

From ChEMBL document CHEMBL1201861, “Genomics of Drug Sensitity in Cancer screening data, Wellcome Trust Sanger Institute”
